The target of one data set is DNA-PK (Homo sapiens (Human), UniProt P78527). Kind of data set: DNA-PK assay (biochemical), flashplate 33P-ATP kinase assay. Conditions: enzymatic; 5 μM ATP. In a few lines: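 Radiometric kinase reaction in streptavidin-coated flashplates, stopped with 200 mM EDTA, then 30 min room-temperature incubation and saline washes.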
The target in data set [1] is DNA-PK phosphorylation at serine 2056 (Homo sapiens (Human), UniProt P78527). The experiment in a line: DNA-PK phosphorylation at serine 2056 (cellular), bleomycin-treated HCT116 cells, ELISA. Conditions: cellular; HCT116 cells, 10 μM bleomycin, six hours; read-out: IC50 pDNA-PK. In kind it is cell-based. In a few lines: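 HCT116 cells were treated with 10 μM bleomycin plus test compounds for six hours at 37 °C. Phospho-Ser2056 DNA-PK measured by chemiluminescent ELISA, normalised to total DNA-PKcs signal; DMSO control as blank.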
In general terms: ELISA stands for enzyme-linked immunosorbent assay.

A further data set has as its target Kv11.1 (hERG) (Homo sapiens (Human), UniProt Q12809). The experiment in a line: Kv11.1 (hERG) ion channel activity (patch clamp assay), HEK293 cells transfected with hERG gene. Conditions: patch clamp, HEK293 transfected with hERG gene. In general terms: The hERG channel carries a current that helps repolarise heart muscle cells.

We go through 24 compounds from patent US9732094B2, “Arylquinazolines” (Merck Patent GmbH, priority 2013, dated 2017).

Read-outs that look alike come from different tables or passages of the source. Some results are limits rather than exact numbers.

Chain of Kv11.1 (hERG) (Q12809 whole entry): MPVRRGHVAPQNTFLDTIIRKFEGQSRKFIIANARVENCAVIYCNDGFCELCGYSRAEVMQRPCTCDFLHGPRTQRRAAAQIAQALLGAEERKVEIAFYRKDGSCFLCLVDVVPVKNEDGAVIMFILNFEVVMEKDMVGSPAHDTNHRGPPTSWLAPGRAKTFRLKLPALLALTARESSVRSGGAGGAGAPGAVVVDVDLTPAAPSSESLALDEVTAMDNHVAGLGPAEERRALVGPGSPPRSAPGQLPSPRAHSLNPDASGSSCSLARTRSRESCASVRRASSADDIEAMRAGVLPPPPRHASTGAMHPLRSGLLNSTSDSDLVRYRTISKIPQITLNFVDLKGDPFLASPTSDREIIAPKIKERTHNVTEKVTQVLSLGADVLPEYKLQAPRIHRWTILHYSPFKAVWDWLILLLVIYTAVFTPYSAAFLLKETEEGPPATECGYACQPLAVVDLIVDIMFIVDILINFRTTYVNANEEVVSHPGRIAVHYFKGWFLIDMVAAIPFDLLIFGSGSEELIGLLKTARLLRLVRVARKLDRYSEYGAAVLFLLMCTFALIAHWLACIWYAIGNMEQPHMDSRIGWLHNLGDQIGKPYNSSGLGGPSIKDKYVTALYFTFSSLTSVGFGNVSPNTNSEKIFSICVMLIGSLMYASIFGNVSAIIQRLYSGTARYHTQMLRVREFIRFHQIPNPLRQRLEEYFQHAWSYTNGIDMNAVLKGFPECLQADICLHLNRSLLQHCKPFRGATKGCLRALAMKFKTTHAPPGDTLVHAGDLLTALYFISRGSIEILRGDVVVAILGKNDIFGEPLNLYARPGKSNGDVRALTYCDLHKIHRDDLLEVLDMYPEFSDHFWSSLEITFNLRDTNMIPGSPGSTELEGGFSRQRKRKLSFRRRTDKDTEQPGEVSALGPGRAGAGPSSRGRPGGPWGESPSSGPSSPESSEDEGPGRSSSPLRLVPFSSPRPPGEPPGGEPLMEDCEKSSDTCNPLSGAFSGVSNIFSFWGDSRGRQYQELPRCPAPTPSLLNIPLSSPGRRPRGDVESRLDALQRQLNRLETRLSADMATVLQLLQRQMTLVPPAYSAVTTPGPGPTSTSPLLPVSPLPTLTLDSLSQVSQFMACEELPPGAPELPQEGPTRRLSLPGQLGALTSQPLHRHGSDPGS

For `OC(c1cc(-c2ncnc3cc(N4CCOCC4)ccc23)ccc1Cl)c1ncnc2ccsc12` (stereo not drawn) [Example 89, [2-Chloro-5-(7-morpholin-4-yl-quinazolin-4-yl)-phenyl]thieno[3,2-d}-pyrimidin-4-ylmethanol], the results for the IC50 (against DNA-PK; in data set [1]) were 3 to 7 nM and less than 0.5 µM, respectively. Also, the Ki (in general, the dissociation constant of the complex between target and ligand, obtained from inhibition or displacement) at Kv11.1 (hERG) (Ki [Kv1.11 hERG]) was in the range of 10 to 15 µM.

For the compound `OC(c1cc(-c2ncnc3cc(N4CCOCC4)ccc23)c(F)cc1F)c1ncnc2sccc12` (stereo not drawn) [Example 90, [2,4-Difluoro-5-(7-morpholin-4-yl-quinazolin-4-yl)-phenyl]thieno[2,3-d}-pyrimidin-4-ylmethanol], the IC50 (commonly the midpoint of a concentration-inhibition curve) was less than 3 nM on DNA-PK and less than 0.5 µM in data set [1]. Moreover, the inhibitory constant (Ki) at Kv11.1 (hERG) (read-out: Ki [Kv1.11 hERG]) is more than 25 µM.

On to `Cn1c(C(O)c2ccc(F)c(-c3ncnc4cc(N5CCOCC5)ccc34)c2)cccc1=O` (stereo not drawn) [Example 91, 6-{[4-Fluoro-3-(7-morpholin-4-yl-quinazolin-4-yl)-phenyl]hydroxy-methyl}-1-methyl-1H-pyridin-2-one], for which the concentration for half-maximal inhibition (IC50) was less than 3 nM at DNA-PK and less than 0.5 µM in data set [1]. Further, at Kv11.1 (hERG) (read-out: Ki [Kv1.11 hERG]), the Ki was more than 25 µM.

On to `O=c1ccc(C(O)c2cc(-c3ncnc4cc(N5CCOCC5)ccc34)c(F)cc2Cl)n[nH]1` (stereo not drawn) [Example 92, 3-[[2-Chloro-4-fluoro-5-(7-morpholino-quinazolin-4-yl)phenyl]-hydroxymethyl]-1H-pyridazin-6-one], for which the values for the IC50 (against DNA-PK; in data set [1]) were less than 3 nM and less than 0.5 µM, respectively. The inhibition constant Ki on Kv11.1 (hERG) (read-out: Ki [Kv1.11 hERG]) was more than 25 µM.

Regarding `CCn1nc(C(O)c2cc(-c3ncnc4cc(N5CCOCC5)ccc34)c(F)cc2Cl)ccc1=O` (stereo not drawn) [Example 93, 6-{[2-Chloro-4-fluoro-5-(7-morpholin-4-yl-quinazolin-4-y1)phenyl]-hydroxymethyl}-2-ethyl-2H-pyridazin-3-one], the results for the IC50 (against DNA-PK; in data set [1]) were 3 to 7 nM and less than 0.5 µM, respectively. Besides, at Kv11.1 (hERG) (Ki [Kv1.11 hERG]), the inhibition constant Ki fell in the range of 10 to 15 µM.

`NCCn1nc(C(O)c2cc(-c3ncnc4cc(N5CCOCC5)ccc34)c(F)cc2Cl)ccc1=O` (stereo not drawn) [Example 94, 2-(2-Amino-ethyl)-6-{[2-Chloro-4-fluoro-5-(7-morpholin-4-yl-quinazolin-4-yl)phenyl]-hydroxymethyl}-2H-pyridazin-3-one]: the IC50 at DNA-PK is 7 to 30 nM; in data set [1] it was 10 to 30 µM. Further, at Kv11.1 (hERG) (read-out: Ki [Kv1.11 hERG]), the inhibitory constant (Ki) was more than 25 µM.

As for `O=c1ccc(C(O)c2cc(-c3ncnc4cc(N5CCOCC5)ccc34)c(F)cc2Cl)nn1C1CC1` (stereo not drawn) [Example 95, 6-{[2-Chloro-4-fluoro-5-(7-morpholin-4-yl-quinazolin-4-yl)phenyl]-hydroxymethyl}-2-cyclopropyl-2H-pyridazin-3-one], the IC50 fell in the range of 7 to 30 nM against DNA-PK and 0.5 to 5 µM in data set [1]. Further, the Ki at Kv11.1 (hERG) (read-out: Ki [Kv1.11 hERG]) was more than 25 µM.

With `CCn1nc(C(O)c2cc(-c3ncnc4cc(N5CCOCC5)ccc34)c(F)cc2Cl)ccc1=O` (stereo not drawn) [Example 96, 6{[2-Chloro-4-fluoro-5-(7-morpholin-4-yl-quinazolin-4-yl)phenyl]-hydroxymethyl}-2-ethyl-2H-pyridazin-3-one], the half-maximal inhibitory concentration (IC50) at DNA-PK is 7 to 30 nM; in data set [1], 0.5 to 5 µM. Moreover, at Kv11.1 (hERG) (read-out: Ki [Kv1.11 hERG]), the Ki is more than 25 µM.

Take `CCn1nc(C(O)c2cc(-c3ncnc4cc(N5CCOCC5)ccc34)c(F)cc2Cl)ccc1=O` (stereo not drawn) [Example 97, 6-{[2-Chloro-4-fluoro-5-(7-morphohn-4-yl-quinazolin-4-yl)phenyl]-hydroxymethyl}-2-ethyl-2H-pyridazin-3-one]: the results for the 50% inhibitory concentration (IC50) (against DNA-PK; in data set [1]) were less than 3 nM and 0.5 to 5 µM, respectively. Moreover, the inhibitory constant (Ki) at Kv11.1 (hERG) (read-out: Ki [Kv1.11 hERG]) is more than 25 µM.

For `NC(=O)Cn1nc(C(O)c2cc(-c3ncnc4cc(N5CCOCC5)ccc34)c(F)cc2Cl)ccc1=O` (stereo not drawn) [Example 98, 2-{3-{[2-Chloro-4-fluoro-5-(7-morpholin-4-ylquinazolin-4-yl)-phenyl]hydroxymethyl}-6-oxo-6H-pyridazin-1-yl)acetamide], the IC50 at DNA-PK was in the range of 3 to 7 nM; in data set [1] it was 10 to 30 µM. In addition, the inhibition constant (Ki) at Kv11.1 (hERG) (read-out: Ki [Kv1.11 hERG]) is more than 25 µM.

`O=c1ccc(C(O)c2cc(-c3ncnc4cc(N5CCOCC5)ccc34)c(F)cc2Cl)nn1CCO` (stereo not drawn) [Example 99, 6-{[2-Chloro-4-fluoro-5-(7-morpholin-4-yl-quinazolin-4-yl)phenyl]-hydroxymethyl}-2-(2-hydroxy-ethyl)-2H-pyridazin-3-one]: the 50% inhibitory concentration (IC50) on DNA-PK is 3 to 7 nM; in data set [1], 0.5 to 5 µM. Moreover, the Ki on Kv11.1 (hERG) (read-out: Ki [Kv1.11 hERG]) was more than 25 µM.

Turning to `CC(C#N)Oc1ccc(C(O)c2cc(-c3ncnc4cc(N5CCOCC5)ccc34)c(F)cc2Cl)nn1` (stereo not drawn) [Example 101, 2-(6-{[2-Chloro-4-fluoro-5-(7-morpholin-4-yl-quinazolin-4-yl)-phenyl)hydroxy-methyl}pyridazin-3-yloxy)propionitrile], the IC50 was less than 3 nM against DNA-PK and less than 0.5 µM in data set [1]. This compound showed an inhibition constant Ki on Kv11.1 (hERG) (Ki [Kv1.11 hERG]) of 10 to 15 µM.

Consider `OCCOc1nccnc1C(O)c1ccc(F)c(-c2ncnc3cc(N4CCOCC4)ccc23)c1` (stereo not drawn) [Example 105, 2-(3-{[4-fluoro-3-(7-morpholin-4-yl-quinazolin-4-yl)-phenyl]hydroxy-methyl}pyrazin-2-yl-oxy)ethanol], for which the half-inhibitory concentration (IC50) is 7 to 30 nM against DNA-PK and 10 to 30 µM in data set [1]. Besides, the Ki on Kv11.1 (hERG) (read-out: Ki [Kv1.11 hERG]) is more than 25 µM.

For the compound `OCCNc1nccnc1C(O)c1ccc(F)c(-c2ncnc3cc(N4CCOCC4)ccc23)c1` (stereo not drawn) [Example 106, 2-(3-{[4-fluoro-3-(7-morpholin-4-yl-quinazolin-4-yl)-phenyl]hydroxy-methyl}pyrazin-2-yl-amino)ethanol], the half-maximal inhibitory concentration (IC50) at DNA-PK was 7 to 30 nM; in data set [1] it was 5 to 10 µM. On Kv11.1 (hERG) (Ki [Kv1.11 hERG]), this compound returned a Ki of 15 to 25 µM.

With `N#CCCOc1ccc(C(O)c2cc(-c3ncnc4cc(N5CCOCC5)ccc34)c(F)cc2Cl)nn1` (stereo not drawn) [Example 107, 3-(6-{[2-Chloro-4-fluoro-5-(7-morpholin-4-yl-quinazolin-4-yl)-phenyl]hydroxy-methyl}pyridazin-3-yl-oxy)propionitrile], the concentration for half-maximal inhibition (IC50) at DNA-PK lay within 3 to 7 nM; in data set [1], 0.5 to 5 µM. On Kv11.1 (hERG) (read-out: Ki [Kv1.11 hERG]), the inhibitory constant (Ki) is more than 25 µM.

Turning to `CSc1ccc(C(O)c2cc(-c3ncnc4cc(N5CCOCC5)ccc34)c(F)cc2Cl)nn1` (stereo not drawn) [Example 108, [2-Chloro-4-fluoro-5-(7-morpholin-4-yl-quinazolin-4-yl)-phenyl]-(6-methyl-sulfanylpyridazin-3-yl)methanol], the concentration for half-maximal inhibition (IC50) is 3 to 7 nM against DNA-PK and less than 0.5 µM in data set [1]. On Kv11.1 (hERG) (Ki [Kv1.11 hERG]), the inhibition constant (Ki) lay in the range of 15 to 25 µM.

Turning to `COc1cc(C)c(C(O)c2cc(-c3ncnc4cc(N5CCOCC5)ccc34)c(F)cc2Cl)nn1` (stereo not drawn) [Example 109, [2-Chloro-4-fluoro-5-(7-morpholin-4-yl-quinazolin-4-yl)-phenyl]-(6-methoxy-4-methylpyridazin-3-yl)methanol], the IC50 against DNA-PK is more than 30 nM; in data set [1], 5 to 10 µM. The inhibitory constant (Ki) on Kv11.1 (hERG) (read-out: Ki [Kv1.11 hERG]) is more than 25 µM.

Regarding `COc1nnc(C(O)c2cc(-c3ncnc4cc(N5CCOCC5)ccc34)c(F)cc2Cl)cc1C` (stereo not drawn) [Example 110, [2-Chloro-4-fluoro-5-(7-morpholin-4-yl-quinazolin-4-yl)-phenyl]-(6-methoxy-5-methylpyridazin-3-yl)methanol], the half-maximal inhibitory concentration (IC50) against DNA-PK is 7 to 30 nM; in data set [1], 0.5 to 5 µM. Also, at Kv11.1 (hERG) (Ki [Kv1.11 hERG]), the Ki fell in the range of 10 to 15 µM.

For the compound `NC(=O)COc1ccc(C(O)c2cc(-c3ncnc4cc(N5CCOCC5)ccc34)c(F)cc2Cl)nn1` (stereo not drawn) [Example 111, 2-(6-{[2-Chloro-4-fluoro-5-(7-morpholin-4-yl-quinazolin-4-yl)-phenyl]hydroxy-methyl}pyridazin-3-yloxy)acetamide], the IC50 on DNA-PK lay within 3 to 7 nM; in data set [1] it was 5 to 10 µM. The Ki on Kv11.1 (hERG) (read-out: Ki [Kv1.11 hERG]) was more than 25 µM.

Take `COCCOc1ccc(C(O)c2cc(-c3ncnc4cc(N5CCOCC5)ccc34)c(F)cc2Cl)nn1` (stereo not drawn) [Example 112, [2-Chloro-4-fluoro-5-(7-morpholin-4-yl-quinazolin-4-yl)-phenyl]-[6-(2-methoxyethoxy)-pyridazin-3-yl]-methanol]: the concentration for half-maximal inhibition (IC50) was less than 3 nM against DNA-PK and 0.5 to 5 µM in data set [1]. The inhibition constant Ki on Kv11.1 (hERG) (Ki [Kv1.11 hERG]) is 15 to 25 µM.

For the compound `O=C(O)COc1ccc(C(O)c2cc(-c3ncnc4cc(N5CCOCC5)ccc34)c(F)cc2Cl)nn1` (stereo not drawn) [Example 113, (6-{[2-Chloro-4-fluoro-5-(7-morpholin-4-yl-quinazolin-4-yl)-phenyl]hydroxy-methyl}pyridazin-3-yl-oxy)acetic acid], the values for the IC50 (at DNA-PK; in data set [1]) were 3 to 7 nM and 10 to 30 µM, respectively. On Kv11.1 (hERG) (read-out: Ki [Kv1.11 hERG]), the inhibition constant Ki is more than 25 µM.

With `COC(=O)COc1ccc(C(O)c2cc(-c3ncnc4cc(N5CCOCC5)ccc34)c(F)cc2Cl)nn1` (stereo not drawn) [Example 114, (6-{[2-Chloro-4-fluoro-5-(7-morpholin-4-yl-quinazolin-4-yl)-phenyl]hydroxy-methyl}pyridazin-3-yl-oxy)acetic acid methyl ester], the 50% inhibitory concentration (IC50) on DNA-PK lay in the range of 3 to 7 nM; in data set [1], 10 to 30 µM. The inhibition constant Ki on Kv11.1 (hERG) (read-out: Ki [Kv1.11 hERG]) was more than 25 µM.

Consider `OC(c1ccc(OCC(F)(F)F)nn1)c1cc(-c2ncnc3cc(N4CCOCC4)ccc23)c(F)cc1Cl` (stereo not drawn) [Example 115, [2-Chloro-4-fluoro-5-(7-morpholin-4-yl-quinazolin-4-yl)-phenyl]-[6-(2,2,2-trifluoroethoxy)-pyridazin-3-yl]-methanol], for which the IC50 on DNA-PK fell in the range of 3 to 7 nM; in data set [1], 0.5 to 5 µM. The compound further had an inhibition constant Ki on Kv11.1 (hERG) (Ki [Kv1.11 hERG]) of 10 to 15 µM.

For `OCCOc1ccc(C(O)c2cc(-c3ncnc4cc(N5CCOCC5)ccc34)c(F)cc2Cl)nn1` (stereo not drawn) [Example 116, 2-(6-{[2-Chloro-4-fluoro-5-(7-morpholin-4-yl-quinazolin-4-yl)-phenyl]hydroxy-methyl}pyridazin-3-yl-oxy)ethanol], the IC50 against DNA-PK is less than 3 nM; in data set [1] it was 0.5 to 5 µM. Moreover, at Kv11.1 (hERG) (read-out: Ki [Kv1.11 hERG]), the Ki was more than 25 µM.
